The text below walks through data of article PMC9851200, “Multiparameter phenotypic screening for endogenous TFEB and TFE3 translocation identifies novel chemical series modulating lysosome function” (Autophagy, 2022).

Where two headings read alike, the source gives them in different places.

Holding throughout (settings): PKIS2 primary screening
One data set deals with endogenous TFE3. In words: TFE3 nuclear translocation, immunocytochemistry high-content imaging. The format is cell-based.
Data set [1] relates to SH-SY5Y cells. In words: Nuclear count from microscopy images (cellular growth and toxicity). Note: reference of the scale not given here.
The test system of data set [2] is SH-SY5Y cells.
Description: The PKIS2 Library was supplied by The Structural Genomics Consortium at the University of North Carolina at Chapel Hill.
The subject of the next data set is endogenous TFEB. As to the kind of experiment: TFEB nuclear translocation, immunocytochemistry high-content imaging. It is filed as cell-based.
Data set [3] deals with SH-SY5Y cells. In words: AK (adenylate kinase) release ToxiLight cytotoxicity assay. Note: reference of the scale not given here.
Throughout, for DQ Intensity: reference of the scale not given here.
Throughout, for DQ Spot: reference of the scale not given here.

The molecule `CN1CCN(CCCNc2nccc(-c3c(-c4ccc(F)cc4)nn4cc(C(F)(F)F)ccc34)n2)CC1` [UNC10225376A] had a TFE3 % in the data set with endogenous TFE3 of 16.03%. The “Nuclear Count” value in the data set with SH-SY5Y cells [1] is 97.99. Also, in the data set on SH-SY5Y cells [2], the “DQ Intensity” value turned out to be 120.10 and the “DQ Spot” value was 102.44. In the data set on endogenous TFEB, this molecule yielded a TFEB % of 5.73%. In the data set on SH-SY5Y cells [3], this molecule gave an AK of 108.97.

Turning to `CNC(=O)c1ccccc1Nc1nc(Nc2ccc(N3CCOCC3)cc2)ncc1Cl` [GSK1576028], the TFE3 % with endogenous TFE3 amounted to 5.85%. Further, in the data set with SH-SY5Y cells [1], the “Nuclear Count” value was determined as 15.51. Moreover, the “DQ Intensity” value in the data set on SH-SY5Y cells [2] (DQ Red BSA intensity) is given as 165.31. For the same molecule, the “DQ Spot” value in the data set on SH-SY5Y cells [2] (DQ Red BSA spot count) is on record as 111.32. For the same molecule, the TFEB % in the data set on endogenous TFEB is 42.50%. The molecule further came in with an AK in the data set with SH-SY5Y cells [3] of 149.21.

The molecule `COc1cc(Nc2nccc(N3CCC(NS(=O)(=O)c4ccc(NC(C)=O)cc4)CC3)n2)cc(OC)c1OC` [GSK1379825] had a TFE3 % in the data set with endogenous TFE3 of 12.08%. For the same molecule, the “Nuclear Count” value with SH-SY5Y cells [1] was found to be 107.84. In addition, the “DQ Intensity” value in the data set with SH-SY5Y cells [2] (DQ Red BSA intensity) is 96.24. Moreover, the “DQ Spot” value with SH-SY5Y cells [2] (DQ Red BSA spot count) came to 89.82. This molecule also had a TFEB % in the data set with endogenous TFEB of 12.82%. Besides, the AK in the data set with SH-SY5Y cells [3] is 75.82.

As for `COc1cccc(NC(=O)NCCNc2ccnc(Nc3ccc(F)cc3)n2)c1` [GSK1379879], the TFE3 % in the data set with endogenous TFE3 was 16.07%. Also, in the data set on SH-SY5Y cells [1], the “Nuclear Count” value turned out to be 93.19. For the same molecule, the “DQ Intensity” value in the data set on SH-SY5Y cells [2] (DQ Red BSA intensity) is 127.01. Further, the “DQ Spot” value in the data set on SH-SY5Y cells [2] (DQ Red BSA spot count) came to 112.84. Also, the TFEB % with endogenous TFEB was 4.69%. The molecule further had an AK in the data set on SH-SY5Y cells [3] of 80.56.

Take `CN(C)CCN(C)C(=O)c1cc(-c2ccncc2)c(-c2ccc(Cl)c(O)c2)o1.Cl.Cl` [UNC10225256A]: the TFE3 % with endogenous TFE3 stood at 22.07%. The “Nuclear Count” value in the data set on SH-SY5Y cells [1] came out at 130.04. Moreover, in the data set with SH-SY5Y cells [2], the “DQ Intensity” value is reported as 171.47 and the “DQ Spot” value came out at 68.22. The same molecule came in with a TFEB % in the data set with endogenous TFEB of 10.97%. In the data set with SH-SY5Y cells [3], this molecule showed an AK of 88.55.

In the data set on endogenous TFE3, `COc1cccc2c(-c3ccncc3)c(-c3ccc(F)cc3)nn12` [UNC10225305A] yielded a TFE3 % of 7.73%. Further, the “Nuclear Count” value in the data set on SH-SY5Y cells [1] is recorded as 99.48. In the data set on SH-SY5Y cells [2] (DQ Red BSA intensity), the “DQ Intensity” value worked out at 96.09. For the same molecule, the “DQ Spot” value in the data set with SH-SY5Y cells [2] (DQ Red BSA spot count) is listed as 98.66. In the data set with endogenous TFEB, this molecule registered a TFEB % of 7.57%. In the data set on SH-SY5Y cells [3], the AK was determined as 95.93.

Molecule `Cc1ccc(NC(=O)Nc2ccc(Cl)cc2)cc1-c1ccc(C(=O)Nc2ccncc2)cc1` [UNC10225388A] yielded a TFE3 % with endogenous TFE3 of 28.63%. In the data set on SH-SY5Y cells [1], the “Nuclear Count” value is 82.28. In addition, in the data set on SH-SY5Y cells [2], the “DQ Intensity” value came out at 98.78 and the “DQ Spot” value is recorded as 97.95. The TFEB % with endogenous TFEB came out at 7.90%. The AK in the data set on SH-SY5Y cells [3] was determined as 83.48.

`Cc1ccc(S(=O)(=O)Nc2ccc(Nc3nccc(Nc4cccc5[nH]ncc45)n3)cc2)cc1` [GSK581271] registered a TFE3 % in the data set with endogenous TFE3 of 6.80%. For the same molecule, the “Nuclear Count” value with SH-SY5Y cells [1] is listed as 129.24. In addition, in the data set on SH-SY5Y cells [2] (DQ Red BSA intensity), the “DQ Intensity” value is recorded as 132.42. In addition, the “DQ Spot” value in the data set on SH-SY5Y cells [2] (DQ Red BSA spot count) is 120.36. Further, the TFEB % in the data set on endogenous TFEB stood at 3.93%. For the same molecule, the AK with SH-SY5Y cells [3] was determined as 89.43.

Regarding `COc1ccc(Nc2nccc(N3CCC(NC(=O)c4cccc(C#N)c4)C3)n2)cc1` (stereo not drawn) [GSK1379730], the TFE3 % in the data set on endogenous TFE3 stood at 13.54%. In addition, the “Nuclear Count” value with SH-SY5Y cells [1] was determined as 108.33. The “DQ Intensity” value in the data set with SH-SY5Y cells [2] (DQ Red BSA intensity) is on record as 67.56. The “DQ Spot” value in the data set on SH-SY5Y cells [2] (DQ Red BSA spot count) is 85.55. In addition, the TFEB % in the data set on endogenous TFEB was determined as 9.20%. Also, the AK in the data set with SH-SY5Y cells [3] is 125.87.

`COc1ccc(Nc2nccc(N3CCC(NC(=O)c4cc5ccccc5s4)C3)n2)cc1` (stereo not drawn) [GSK1379738] displayed a TFE3 % in the data set with endogenous TFE3 of 9.69%. Moreover, in the data set on SH-SY5Y cells [1], the “Nuclear Count” value is on record as 101.04. In addition, the “DQ Intensity” value in the data set with SH-SY5Y cells [2] (DQ Red BSA intensity) turned out to be 52.05. Moreover, the “DQ Spot” value with SH-SY5Y cells [2] (DQ Red BSA spot count) is 80.56. In the data set with endogenous TFEB, this molecule registered a TFEB % of 5.33%. The molecule further came in with an AK in the data set on SH-SY5Y cells [3] of 106.01.

`COC(=O)C(Cc1ccccc1)NC(=O)NC1CCN(c2ccnc(Nc3ccc(F)cc3)n2)C1` (stereo not drawn) [GSK1379714] registered a TFE3 % in the data set with endogenous TFE3 of 7.75%. Further, the “Nuclear Count” value in the data set with SH-SY5Y cells [1] is given as 110.40. The “DQ Intensity” value with SH-SY5Y cells [2] (DQ Red BSA intensity) worked out at 97.62. For the same molecule, the “DQ Spot” value with SH-SY5Y cells [2] (DQ Red BSA spot count) turned out to be 115.84. The TFEB % with endogenous TFEB is recorded as 4.19%. In addition, in the data set with SH-SY5Y cells [3], the AK worked out at 95.90.

Turning to `Cl.c1ccc(Cn2cnc3cc(Nc4ncnc5ccccc45)ccc32)cc1` [UNC10225378A], the TFE3 % in the data set on endogenous TFE3 turned out to be 16.85%. Besides, the “Nuclear Count” value in the data set on SH-SY5Y cells [1] is given as 84.68. In the data set with SH-SY5Y cells [2] (DQ Red BSA intensity), the “DQ Intensity” value is recorded as 110.75. The “DQ Spot” value in the data set with SH-SY5Y cells [2] (DQ Red BSA spot count) worked out at 119.25. Besides, the TFEB % in the data set with endogenous TFEB is 2.97%. This molecule also gave an AK in the data set on SH-SY5Y cells [3] of 86.98.

Take `Fc1ccc(-c2nn3c(OCC(F)(F)F)cccc3c2-c2ccncc2)cc1` [UNC10225249A]: the TFE3 % with endogenous TFE3 is listed as 7.21%. Further, in the data set on SH-SY5Y cells [1], the “Nuclear Count” value is listed as 84.48. The “DQ Intensity” value in the data set with SH-SY5Y cells [2] (DQ Red BSA intensity) was determined as 115.73. The “DQ Spot” value with SH-SY5Y cells [2] (DQ Red BSA spot count) is 116.42. The TFEB % in the data set with endogenous TFEB is 6.54%. In addition, the AK with SH-SY5Y cells [3] was 70.84.
